The results in this text go back to patent US20230108408A1, “OXALAMIDE SUBSTITUTED HETEROCYCLIC COMPOUNDS AS MODULATORS OF THE ARYL HYDROCARBON RECEPTOR (AHR)” (PHENEX PHARMACEUTICALS AG, priority 2020, published 2023).

Where only a bound is given, the exact number is not on record here.

As a reminder, the IC50 is the concentration needed to halve the response being measured. A higher IC50 goes with a need for much substance.

The test deals with T1, AhR (Homo sapiens, UniProt P35869).
T1 construct: The HepG2 CYP1A1-Luc cells do express basal luciferase activity that can be increased via potent AhR agonists or decreased via potent AhR antagonists; endogenous in cells
T1 sequence (P35869 11-848): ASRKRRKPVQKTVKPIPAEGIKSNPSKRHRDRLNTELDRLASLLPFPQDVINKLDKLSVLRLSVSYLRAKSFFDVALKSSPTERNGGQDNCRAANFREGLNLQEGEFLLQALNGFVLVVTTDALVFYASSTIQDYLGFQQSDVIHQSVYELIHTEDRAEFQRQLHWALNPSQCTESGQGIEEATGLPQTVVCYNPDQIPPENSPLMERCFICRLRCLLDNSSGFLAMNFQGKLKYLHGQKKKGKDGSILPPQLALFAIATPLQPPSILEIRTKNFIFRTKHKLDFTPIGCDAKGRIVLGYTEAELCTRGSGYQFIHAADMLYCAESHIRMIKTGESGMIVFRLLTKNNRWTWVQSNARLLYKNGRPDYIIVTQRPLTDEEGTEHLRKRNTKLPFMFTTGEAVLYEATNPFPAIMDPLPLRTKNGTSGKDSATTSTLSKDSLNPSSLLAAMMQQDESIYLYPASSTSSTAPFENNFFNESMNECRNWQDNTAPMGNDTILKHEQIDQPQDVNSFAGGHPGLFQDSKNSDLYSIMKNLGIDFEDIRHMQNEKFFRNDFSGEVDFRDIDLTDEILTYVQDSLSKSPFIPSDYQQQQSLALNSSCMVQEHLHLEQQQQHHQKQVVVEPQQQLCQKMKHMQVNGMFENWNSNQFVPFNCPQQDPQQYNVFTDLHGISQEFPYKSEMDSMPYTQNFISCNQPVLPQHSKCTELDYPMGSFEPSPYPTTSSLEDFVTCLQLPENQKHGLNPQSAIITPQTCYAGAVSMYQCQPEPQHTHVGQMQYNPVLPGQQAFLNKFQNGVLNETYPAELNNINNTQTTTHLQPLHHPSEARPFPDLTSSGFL
The experiment in a line: AhR Direct Luciferase Reporter Assay in HepG2 Cells. It counts as cell-based. As to conditions: AhR antagonistic potency; HepG2 CYP1A1-Luc cells, 18 hours, no exogenous AhR agonist or 10 nM VAF347. An excerpt: AhR Direct Luciferase Reporter Assay in HepG2 Cells.
A stable cell line (HepG2 CYP1A1-LUC) was used in which part of the promoter region of the human CYP1A1 gene is stably integrated into the genome of human HepG2 hepatocytes (DSZM #ACC 180) in front of a Photinus pyralis Firefly Luciferase gene. A 1210 bp fragment comprising part of the human CYP1A1 promoter was isolated via SacI and BgIII restriction digestion from Lightswitch Clone S714555 (SwitchGearGenomics) and inserted between the SacI and BgIII sites in pGL4.30 (Promega #E8481) in front of the Firefly Luciferase gene. The resulting vector was linearized with NotI, transfected into HepG2 cells (DSMZ #ACC 180) and stably transfected clones selected with 250 μg/ml Hygromycin B. After repetitive rounds of subcloning and testing for robustly regulated luciferase activity after AhR agonist stimulation, a stable clonal HepG2 CYP1A1-Luc cell line was selected.
The HepG2 CYP1A1-Luc cells do express basal luciferase activity that can be increased via potent AhR agonists or decreased via potent AhR antagonists, added to the growth medium of the cells.
In typical reporter assays performed with this cell line, cells are grown in 96-well plates and AhR modulators are titrated into the growth medium in serial dilutions in RPMI-1640 Medium (Sigma #R7509) supplemented with 8.6% fetal calf serum (Sigma #F7524) and containing either no exogenous AhR agonist or 10 nM of the potent AhR agonist VAF347 (Calbiochem #182690). Cells are further cultivated for 18 hours and luciferase activities are determined from extracts of cells in buffers containing D-Luciferine and ATP using a LUMIstar Optima microplate Luminometer from BMG Labtech.
For orientation: Reporter assays use an easily measured gene product as a stand-in for the process of interest.
`CC1CCN1C(=O)C(=O)Nc1ccc2cc(-c3cc(C#N)ccc3C(F)(F)F)[nH]c2n1` (stereo not shown) [1/6] showed an IC50 of less than 100 nM.

Turning to `N#Cc1ccc(C(F)(F)F)c(-c2cc3ccc(NC(=O)C(=O)N4CCOCC4)nc3[nH]2)c1` [1/1], the IC50 was 100 to 1000 nM.

Consider `CN1CCN(C(=O)C(=O)Nc2ccc3cc(-c4cc(C#N)ccc4C(F)(F)F)[nH]c3n2)CC1` [1/2], for which the IC50 is more than 1000 nM.

`N#Cc1ccc(C(F)(F)F)c(-c2cc3ccc(NC(=O)C(=O)NCc4ccccc4)nc3[nH]2)c1` [2/1, N^1-Benzyl-N^2-(2-(5-cyano-2-(trifluoromethyl)phenyl)-1H-pyrrolo[2,3-b]pyridin-6-yl)oxalamide] showed an IC50 of 100 to 1000 nM.

For the compound `N#Cc1ccc(C(F)(F)F)c(-c2cc3ccc(NC(=O)C(=O)N4CCC5(CC5)C4)nc3[nH]2)c1` [1/5], the concentration for half-maximal inhibition (IC50) was less than 100 nM.

Regarding `N#Cc1ccc(C(F)(F)F)c(-c2cc3ccc(NC(=O)C(=O)N4CCCC4)nc3[nH]2)c1` [Example 1, N-(2-(5-Cyano-2-(trifluoromethyl)phenyl)-1H-pyrrolo[2,3-b]pyridin-6-yl)-2-oxo-2-(pyrrolidin-1-yl)acetamide], the 50% inhibitory concentration (IC50) is less than 100 nM.

Compound `CC1(O)CN(C(=O)C(=O)Nc2ccc3cc(-c4cc(C#N)ccc4C(F)(F)F)[nH]c3n2)C1` [Example 2, N-(2-(5-Cyano-2-(trifluoromethyl)phenyl)-1H-pyrrolo[2,3-b]pyridin-6-yl)-2-(3-hydroxy-3-methylazetidin-1-yl)-2-oxoacetamide] came in with an IC50 of 100 to 1000 nM.

Regarding `COCCN(C)C(=O)C(=O)Nc1ccc2cc(-c3cc(C#N)ccc3C(F)(F)F)[nH]c2n1` [1/4], the IC50 fell in the range of 100 to 1000 nM.

The compound `N#Cc1ccc(C(F)(F)F)c(-c2cc3ccc(NC(=O)C(=O)N4CCC4)nc3[nH]2)c1` [1/7] gave a concentration for half-maximal inhibition (IC50) of 100 to 1000 nM.

`CN(CC(F)(F)F)C(=O)C(=O)Nc1ccc2cc(-c3cc(C#N)ccc3C(F)(F)F)[nH]c2n1` [1/3] had an IC50 of less than 100 nM.
